In the NIST ThermoML archive (doi:10.1021/acs.jced.9b00248):
Numbers after ± are expanded uncertainties.

Assay: mn = molality of the nth substance listed, in mol/kg
Details: Liquid; for viscosity: Vibrating wire viscometry; for mass density: Vibrating tube method

[Cl-].[Na+] [sodium chloride] + O
Details	mass density [kg/m3]	viscosity [mPa·s]
274.65 K, 1400 kPa, m1 = 0.77	–	1.748 ± 0.053
274.65 K, 15300 kPa, m1 = 0.77	–	1.718 ± 0.052
274.65 K, 30200 kPa, m1 = 0.77	–	1.704 ± 0.052
274.65 K, 50100 kPa, m1 = 0.77	–	1.7 ± 0.052
274.83 K, 15210 kPa, m1 = 0.77	1039.38 ± 0.69	–
274.83 K, 30120 kPa, m1 = 0.77	1045.95 ± 0.7	–
274.83 K, 49950 kPa, m1 = 0.77	1054.41 ± 0.71	–
274.83 K, 69810 kPa, m1 = 0.77	1062.53 ± 0.73	–
274.83 K, 99820 kPa, m1 = 0.77	1074.13 ± 0.78	–
274.95 K, 1340 kPa, m1 = 2.5	1098.36 ± 0.87	–
274.95 K, 15260 kPa, m1 = 2.5	1103.81 ± 0.88	–
274.95 K, 30190 kPa, m1 = 2.5	1109.5 ± 0.89	–
274.95 K, 50040 kPa, m1 = 2.5	1116.83 ± 0.92	–
274.95 K, 69930 kPa, m1 = 2.5	1123.92 ± 0.97	–
274.95 K, 99990 kPa, m1 = 2.5	1134.12 ± 1.1	–
296.19 K, 1330 kPa, m1 = 2.5	1090.47 ± 0.85	–
296.19 K, 15240 kPa, m1 = 2.5	1095.73 ± 0.86	–
296.19 K, 30160 kPa, m1 = 2.5	1101.16 ± 0.87	–
296.19 K, 50020 kPa, m1 = 2.5	1108.18 ± 0.92	–
296.19 K, 69880 kPa, m1 = 2.5	1115.02 ± 0.96	–
296.19 K, 99980 kPa, m1 = 2.5	1124.82 ± 1	–
296.22 K, 1380 kPa, m1 = 0.77	1028.25 ± 0.69	–
296.22 K, 15220 kPa, m1 = 0.77	1034.12 ± 0.7	–
296.22 K, 49930 kPa, m1 = 0.77	1048.04 ± 0.71	–
296.22 K, 69810 kPa, m1 = 0.77	1055.61 ± 0.72	–
296.22 K, 99840 kPa, m1 = 0.77	1066.51 ± 0.76	–
323.3 K, 1380 kPa, m1 = 2.5	1077.94 ± 0.83	–
323.3 K, 15290 kPa, m1 = 2.5	1083.2 ± 0.84	–
323.3 K, 30220 kPa, m1 = 2.5	1088.58 ± 0.85	–
323.3 K, 50060 kPa, m1 = 2.5	1095.53 ± 0.91	–
323.3 K, 69950 kPa, m1 = 2.5	1102.24 ± 0.94	–
323.3 K, 100010 kPa, m1 = 2.5	1111.99 ± 1	–
323.33 K, 1340 kPa, m1 = 0.77	1017.8 ± 0.69	–
323.33 K, 15260 kPa, m1 = 0.77	1023.47 ± 0.69	–
323.33 K, 30160 kPa, m1 = 0.77	1029.36 ± 0.7	–
323.33 K, 69840 kPa, m1 = 0.77	1044.3 ± 0.71	–
323.33 K, 99890 kPa, m1 = 0.77	1054.9 ± 0.74	–
348.21 K, 1360 kPa, m1 = 2.5	1064.12 ± 0.82	–
348.21 K, 1380 kPa, m1 = 0.77	1004.37 ± 0.68	–
348.21 K, 15260 kPa, m1 = 0.77	1010.15 ± 0.68	–
348.21 K, 15270 kPa, m1 = 2.5	1069.47 ± 0.83	–
348.21 K, 30180 kPa, m1 = 0.77	1016.18 ± 0.69	–
348.21 K, 30200 kPa, m1 = 2.5	1075.01 ± 0.84	–
348.21 K, 50000 kPa, m1 = 0.77	1023.83 ± 0.69	–
348.21 K, 50060 kPa, m1 = 2.5	1082.15 ± 0.85	–
348.21 K, 69880 kPa, m1 = 0.77	1031.26 ± 0.69	–
348.21 K, 69960 kPa, m1 = 2.5	1089.02 ± 0.94	–
348.21 K, 99920 kPa, m1 = 0.77	1041.89 ± 0.72	–
348.21 K, 100020 kPa, m1 = 2.5	1098.91 ± 1	–
348.34 K, 1400 kPa, m1 = 0.77	–	0.412 ± 0.013
348.34 K, 15300 kPa, m1 = 0.77	–	0.416 ± 0.013
348.34 K, 30200 kPa, m1 = 0.77	–	0.421 ± 0.014
348.34 K, 50000 kPa, m1 = 0.77	–	0.429 ± 0.014
348.34 K, 69900 kPa, m1 = 0.77	–	0.433 ± 0.014
373.22 K, 1380 kPa, m1 = 2.5	1047.69 ± 0.81	–
373.22 K, 15310 kPa, m1 = 2.5	1053.49 ± 0.82	–
373.22 K, 30230 kPa, m1 = 2.5	1059.36 ± 0.83	–
373.22 K, 50090 kPa, m1 = 2.5	1066.79 ± 0.84	–
373.22 K, 69960 kPa, m1 = 2.5	1073.94 ± 0.86	–
373.22 K, 100040 kPa, m1 = 2.5	1084.13 ± 0.98	–
